In patent US5705649A, “Protein staining compositions and methods” (Promega Corporation, priority 1995, dated 1998):

Tested on: Promega Mid-Range Molecular Weight Markers
Experiment: Detection of proteins during SDS-PAGE electrophoresis (dye in cathode buffer)
Excerpt: Solutions for the formation and electrophoresis of proteins were made according to the instructions given in Experiments in Gene Fusions, Silhavy, Berman, Enquist, Cold Spring Harbor Laboratory Press, Cold Spring Harbor, N.Y. with the following changes:
a) The SDS concentration in the upper and lower gel buffer components were reduced to result in a 0.05% final SDS concentration in the gel. Thus, the composition of 4× upper gel buffer was 0.5M Tris-HCl, pH 6.8, 0.2 % (w/v) sodium dodecylsulfate (SDS) and the composition of 4× lower gel buffer was 1.5M Tris-HCl, pHS.8, 0.2 % (w/v) SDS.
b) The SDS concentration in the electrophoretic (electrode) buffer was reduced to 0.04% final concentration. Thus, 4× electrode (anode or cathode) buffer was made by dissolving 60 g Tris base, 288 g glycine, and 8 g SDS dissolved in water and then diluting with water to 5 liters. Another name sometimes used for "electrode" buffer is "running" buffer.
c) The SDS concentration in the 2× sample buffer was reduced to 1% final SDS concentration. Thus, 2× sample buffer was made by mixing 0.5 ml of betamercaptoethanol, 0.25 ml of 0.1% (w/v) bromophenol blue, 1 ml of 10 % (w/v) SDS, 3 ml of water, and 5.3 ml of 2× glycerol buffer. 2× glycerol buffer is made by mixing 12.5 ml of 4× upper gel buffer and 20 ml of glycerol and diluting the resulting solution to 60 ml with water. Another name sometimes used for "sample" buffer is "loading" buffer.
d) Electrophoresis was performed using a BIO-RAD miniprotein II electrophoresis apparatus and gels were poured such that i cm of space was present between the bottom of the loading wells and the separating gel.
In other electrophoresis experiments reported in this application, the buffers used were as described above in this example. In some cases, as in this example, where preparation of a solution of dye in 150 ml of cathode (or electrode) buffer is specified, an amount of stock solution of a dye was first added to 150 ml of cathode buffer and then 125 ml of the resulting solution was used to fill the cathode buffer chamber (which holds 125 ml) in the electrophoresis apparatus. In other cases, where addition of stock solution of dye to the cathode buffer is specified without reference to the volume of cathode buffer or with reference to such volume being "125 ml," the stock solution was added directly to 125 ml of cathode buffer already in the cathode buffer chamber.
The samples used were prepared with Promega Mid-Range Molecular Weight Markers solution (Promega Corp., Madison, Wis., USA, Catalog No. V5231) (referred to hereinafter as "Promega Mid-Range [Molecular Weight] Markers or Standards") diluted into Sample Buffer. […]

SMILES: CCCCCCCC(=O)N(c1ccc(OCC)cc1)c1ccc(C(=C2C=CC(=[N+](CC)Cc3cccc(S(=O)(=O)[O-])c3)C=C2)c2ccc(N(CC)Cc3cccc(S(=O)(=O)O)c3)cc2)cc1 [Promega Green 1]
- lowest protein amount per band visible while the gel was running (10% SDS-PAGE, dye in cathode buffer, white plastic card behind gel): 1.0 µg
- lowest protein amount per band visible by the end of the run (most of the bands) (essentially clear background): 0.5 µg
